Assay results as given in article PMC4213378, “Pharmacokinetics and Efficacy of the Spleen Tyrosine Kinase Inhibitor R406 after Ocular Delivery for Retinoblastoma” (Pharmaceutical Research, 2014).

Tests used:
[1] = Co-solvent solution formulation solubility matrix; format: physicochemical
[2] = Crashing upon dilution of DMSO stock in PBS; format: physicochemical
Source text: Supplement 11095_2014_1399_MOESM1_ESM.docx, table 14: Table S14. R406 phenylsulfonate salt and free base crashing upon dilution of DMSO stock in PBS | column: Measured Concentration

RB355 cells = assay: EdU incorporation (DNA synthesis) in RB355 cells; format: cell-based; conditions: 5 μM R406, 0-72 h exposure
Description: To determine if the lack of evidence of efficacy of subconjunctival R406 in a solution formulation was due to suboptimal ocular exposure, we performed a pharmacokinetic experiment. Briefly, 10 μl of R406 solution formulation was delivered to each eye of 15 mice and the plasma and vitreous were harvested at different time points (0.5, 1, 2, 4, and 8 h). The concentration of R406 was measured at each time point in each tissue and the concentration of drug was plotted as a function of time (Fig. 2). The 4 h and 8 h data are not shown, as the majority of R406 concentrations in these samples were BLOQ. […] Importantly, the maximal concentration achieved (0.05 μM) was well below the concentration required to kill the most sensitive retinoblastoma cell line (RB355 in culture, Fig. S3). RB355 cells in culture were treated with DMSO, 1, 2.5, or 5 μM of R406 for varied exposure durations (0, 6, 12, 24, 48 and 72 h). […] Incorporation of 5-ethynyl-2′-deoxyuridine (EdU) was used to detect DNA synthesis. […] Viability of RB355 cells in culture is reduced to 50% of the viability of DMSO treated cells when exposed to 2.5 μM R406 for an exposure duration between 24 and 48 h or 5 μM R406 for an exposure duration between 12 and 24 h.
RB335 cells were seeded in 6-well dishes. […] Luminescence was read after 15 min on an Envision plate reader (Perkin Elmer). […]

[3] = Storage stability of R406 in murine plasma samples; format: physicochemical, mouse
Description: Stability: The extracted solution stability of R406 from murine plasma or vitreous was assessed at low (41.2nM), medium (370.4 nM), and high (3333.3 nM) concentrations in triplicate at room temperature. Blank murine plasma was spiked with the indicated concentrations of R406 and extracted solutions were stored at room temperature for day 0, and day 2. The short-term stability of R406 in murine plasma or vitreous at -20 °C was assessed at three concentrations in triplicate. Samples were thawed at day 1 and 2. At day 2, protein precipitation was performed and samples treated with internal standard/acetonitrile as described previously: for murine plasma samples, 50 µL of sample was quenched by addition of 100 µL of 5 mg/L OSI-906 (internal standard) in 100% acetonitrile, followed by plate sealing, shaking and centrifuging, transfer of 100 µL of supernatant injection of 10 µL of supernatant onto the LC–MS/MS system; for murine vitreous samples, 5 µL of sample quenched by addition of 45 µL of 5 mg/L OSI-906 (internal standard) in 100% acetonitrile, followed by plate sealing, shaking and centrifuging, transfer of 40 µL of supernatant injection of 10 µL of supernatant onto the LC–MS/MS system. Long term stability of R406 in murine plasma or vitreous at −80 °C was assessed. Unextracted spiked murine plasma or vitreous at low, medium, and high levels was frozen at −80 °C for 0, 7, and 14 days. Samples were thawed immediately extracted with acetonitrile/OSI-906, and quantitated. All samples were analyzed in triplicates.

retinoblastoma cells = tested on: retinoblastoma cells; design: method as in PMID 22237022; conditions: cited from earlier work
[4] = Storage stability of R406 in murine plasma samples; format: physicochemical, mouse; conditions: murine plasma at -20°C, thawed on Day 3, injected at Day 3

SMILES: COc1cc(Nc2ncc(F)c(Nc3ccc4c(n3)NC(=O)C(C)(C)O4)n2)cc(OC)c1OC.O=S(=O)(O)c1ccccc1 [R406 phenylsulfonate salt]
- R406 Solubility ([1]; Trial 1: 0.1% Tyloxapol, 99.9% PBS): 11.7 mM
- R406 Solubility ([1]; Trial 4: 3% Glycerin, 97% PBS): 0.4 mM
- R406 Solubility ([1]; Trial 5: 5% Cremaphor-eL, 95% PBS): 170.1 mM
- R406 Solubility ([1]; Trial 6: 10% pG, 90% PBS): 0.4 mM
- R406 Solubility ([1]; Trial 7: 15% pPG, 85% PBS): 15 mM
- R406 Solubility ([1]; Trial 8: 0.2% Tween-80, 99.8% PBS): 399.2 mM
- R406 Solubility ([1]; Trial 9: 100% PBS): 0.4 mM
- R406 Solubility ([1]; Trial 10: 2% PEG-8000, 0.2% Tween-80, 97.8% PBS): 0.4 mM
- R406 Solubility ([1]; Trial 11: 0.5% EtOH, 0.2% Tween-80, 85.8% PBS): 0.6 mM
- R406 Solubility ([1]; Trial 12: 3% Glycerin, 0.2% Tween-80, 96.8% PBS): 1.0 mM
- R406 Solubility ([1]; Trial 13: 5% Cremaphor-eL, 0.2% Tween-80, 94.8% PBS): 178.0 mM
- R406 Solubility ([1]; Trial 14: 10% pG, 0.2% Tween-80, 99.8% PBS): 0.9 mM
- R406 Solubility ([1]; Trial 15: 15% pPG, 0.2% Tween-80, 85.8% PBS): 31.4 mM
- R406 Solubility ([1]; Trial 16: 2% PEG-8000, 0.5% EtOH, 97.5% PBS): 1.5 mM
- R406 Solubility ([1]; Trial 17: 2% PEG-8000, 3% Glycerin, 95% PBS): 0.4 mM
- R406 Solubility ([1]; Trial 18: 2% PEG-8000, 5% Cremaphor-eL, 93% PBS): 144.0 mM
- R406 Solubility ([1]; Trial 19: 2% PEG-8000, 10% pG, 88% PBS): 1.4 mM
- R406 Solubility ([1]; Trial 20: 2% PEG-8000, 15% pPG, 83% PBS): 22.9 mM
- R406 Solubility ([1]; Trial 21: 0.5% EtOH, 3% Glycerin, 96.5% PBS): 0.4 mM
- R406 Solubility ([1]; Trial 22: 0.5% EtOH, 5% Cremaphor-eL, 94.5% PBS): 183.9 mM
- R406 Solubility ([1]; Trial 24: 0.5% EtOH, 15% pPG, 84.5% PBS): 18.4 mM
- R406 Solubility ([1]; Trial 25: 3% Glycerin, 5% Cremaphor-eL, 92% PBS): 183.9 mM
- R406 Solubility ([1]; Trial 26: 3% Glycerin, 10% pG, 87% PBS): 0.4 mM
- R406 Solubility ([1]; Trial 27: 3% Glycerin, 15% pPG, 82% PBS): 18.2 mM
- R406 Solubility ([1]; Trial 28: 5% Cremaphor-eL, 10% pG, 85% PBS): 161.5 mM
- R406 Solubility ([1]; Trial 29: 5% Cremaphor-eL, 15% pPG, 80% PBS): 138.0 mM
- R406 Solubility ([1]; Trial 30: 10% pG, 15% pPG, 75% PBS): 23.3 mM
- R406 Solubility ([1]; Trial 32: 0.5% EtOH, 5% Cremaphor-eL, 0.2% Tween-80, 94.3% PBS): 830.9 mM
- R406 Solubility ([1]; Trial 33: 0.5% EtOH, 3% Glycerin, 5% Cremaphor-eL, 0.2% Tween-80, 91.3% PBS): 773.9 mM
- Measured Concentration ([2]; 10 mM DMSO stock diluted 1 in 10 in PBS prior to filtration): 1010 µM
- Measured Concentration ([2]; DMSO stock diluted 1 in 10 in PBS, 0.22 micron filtered): 88 µM
- Measured Concentration ([2]; DMSO stock diluted 1 in 20 in PBS prior to filtration): 559 µM
- Measured Concentration ([2]; DMSO stock diluted 1 in 20 in PBS, 0.22 micron filtered): 98 µM

SMILES: COc1cc(Nc2ncc(F)c(Nc3ccc4c(n3)NC(=O)C(C)(C)O4)n2)cc(OC)c1OC [R406]
- proportion of cells that incorporated EdU (RB355 cells): decreased with increasing exposure time
- time extracted samples were stable ([3]; extracted from murine plasma, room temperature): at least 48 hours
- Accuracy% ([3]; extracted plasma samples in autosampler for 2 days, injected at Day 3, High Control 3333.3 nM): 94.4%
- Accuracy% ([3]; extracted plasma samples in autosampler for 2 days, injected at Day 3, Low Control 41.2 nM): 97.4%
- Accuracy% ([3]; extracted plasma samples in autosampler for 2 days, injected at Day 3, Middle Control 370.4 nM): 97.6%
- Accuracy% ([3]; murine plasma at -20°C, thawed on Day 2, injected at Day 3, High Control 3333.3 nM): 95.6%
- Accuracy% ([3]; murine plasma at -20°C, thawed on Day 2, injected at Day 3, Low Control 41.2 nM): 109.2%
- Accuracy% ([3]; murine plasma at -20°C, thawed on Day 2, injected at Day 3, Middle Control 370.4 nM): 98.4%
- Accuracy% ([3]; murine plasma at -20°C, thawed on Day 3, injected at Day 3, Middle Control 370.4 nM): 101.5%
- Accuracy% ([3]; murine plasma at -80°C, injected at Day 8, High Control 3333.3 nM): 84.3%
- Accuracy% ([3]; murine plasma at -80°C, injected at Day 8, Low Control 41.2 nM): 87.8%
- Accuracy% ([3]; murine plasma at -80°C, injected at Day 8, Middle Control 370.4 nM): 93.1%
- Accuracy% ([3]; murine plasma at -80°C, injected at Day 15, High Control 3333.3 nM): 89.5%
- Accuracy% ([3]; murine plasma at -80°C, injected at Day 15, Low Control 41.2 nM): 84.8%
- Accuracy% ([3]; murine plasma at -80°C, injected at Day 15, Middle Control 370.4 nM): 84.7%
- time spiked samples were stable ([3]; murine plasma stored at -20°C): at least 72 hours
- time spiked samples were stable ([3]; murine plasma stored at -80°C): ≥ 14 days
- induction of caspase-mediated cell death of retinoblastoma cells in vitro (retinoblastoma cells): can induce caspase-mediated cell death
- Accuracy% ([4]; High Control 3333.3 nM): 90.3%
- Accuracy% ([4]; Low Control 41.2 nM): 96.1%
